From paper PMC5458211, “Mitochondrial VDAC1-based peptides: Attacking oncogenic properties in glioblastoma” (Oncotarget, 2017) come the findings set out here.

Molecules are shown by their SMILES. Non-standard residues stand in square brackets, D forms with d. Residues, ends and D or L forms follow the SMILES beside them.

Experiment [1] concerns G7 stem cells. The experiment is described as follows: Apoptosis by FITC-Annexin V/PI staining and flow cytometry, G7. Type of experiment: cell-based, GBM patient. The settings on record: 3 h at 37°C, Fig 6G-H. The protocol: Sections were also hematoxylin-stained and visualized by microscopy. B. Tissue lysates obtained from controls and several TF-D-LP4-TTs were immunoblotted for Nestin, Sox2, NGFR, CD133, and Klf4. C. Quantitative analysis of immunoblots is shown (n=2-4). D. Immunoblot analysis of, Klf4, Sox2, Nestin and Musashi expression in U-87MG and G7 cell lines, using specific antibodies. E. Quantitative analysis of immunoblots. […] G. G7 (·) and U-87MG cells (○) (2×10^5) were incubated for 3 h with the DMSO (0.15%) or with the indicated concentration of Retro-Tf-D-LP4 peptide in serum-free growth medium at 37°C and then subjected to FITC-Annexin V/PI staining and flow cytometry analysis. H. Representative FACS analysis of DMSO- (left) and 5 μM of Retro-Tf-D-LP4- (right) treated G7 or U-87MG cells.
Cells (6×10^5 /ml) were incubated in 500 μl serum-free medium with the peptide of interest for 6 h at 37°C in the presence of 5% CO2. The cells were then trypsinized, centrifuged (1500xg, 5 min), washed with PBS and analyzed for cell death using propidium iodide (PI) staining and flow cytometer (Beckton-Dickinson, San Jose, CA) and BD CellQuest Pro software. Apoptotic cell death was also analyzed by PI and annexin V-FITC staining, and by acridine orange and ethidium bromide staining and light microscopy (Olympus LX2-KSP).

The test system of experiment [2] is Ki-67. Briefly: Ki-67 immunohistochemistry of xenograft tumors. It counts as in vivo, human U-87MG in nude mice. The settings on record: s.c. U-87MG tumors, 20 μM intra-tumoral, n=5. The protocol:
Figure 3 VDAC1-based peptides inhibit tumor growth, cell proliferation, and invasion in a glioblastoma xenograft mice model A. Graphical representation of the xenograft experiment protocol used. U-87MG cells (3×10^6/mouse) were inoculated into male nude mice as described in Materials and Methods available online in Supplemental information. B, C. […] The calculated average tumor volumes are presented as means ± SE (n=5) (* p≤0.05, ** p≤0.01). C. The volume of peptide-treated tumors is presented as % of control for each indicated time. Results = mean ± SE (n=5) (* p≤0.05, ** […]). […] E. Quantitative analysis of Ki-67 positive cells. Results = mean ± SE (n=5) (*** p<0.001). […]
100% DMSO and then diluted 20-fold with sterile DDW into three groups (6 animals/group) and treated every to reach a concentration of 25 mg/ml in a final DMSO third day with DMSO (1.44%), Retro-Tf-D-LP4 (10 concentration of 5%. PLGA (50 mg) was dissolved in mg/kg) or Retro-Tf-D-LP4 (10 mg/kg) encapsulated by acetone (1 ml). […] Tumor volume was analyzed using VivoQuant 2.10 10 ml of aqueous solution containing 1% PVA (w/v). […]
(Calbiochem, UK). […] Band intensities were analyzed xenografts were injected 20 µl per tumor (2 points) every by densitometry using Multi Gauge software (Fujifilm) […]
For orientation: In xenograft studies the graft and the host belong to different species.

In experiment [3] the test system is U-87MG xenograft tumors. The experiment is described as follows: TUNEL staining of xenograft tumor sections. Particulars: s.c. U-87MG tumor sections; Fig 4A. It counts as in vivo, human U-87MG in nude mice. The text has this:
Red color indicates PI nuclear staining and green color TUNEL staining. B. Representative sections from PBS/DMSO- and peptide-TTs IHC stained for p53, Cyto c, AIF, Caspase 3 and Smac/Diablo and then hematoxylin-stained and visualized by microscopy. C. Tissue lysates obtained from controls and several Tf-D-LP4-TTs were immunoblotted for p53, Caspase 8, Cyto c, Smac/Diablo, Caspase 3 and Bcl-2. D. Quantitative analysis of immunoblots is shown (n=2-4).
Paraffin-embedded -fixed tumors sections were processed for a TUNEL assay using the DeadEnd Fluorometric TUNEL system (Promega) according to the manufacturer's instructions. Sections were deparaffinized, equilibrated in PBS, permeabilized with proteinase K, post-fixed in 4% paraformaldehyde, and incubated in TdT reaction mix for 1 h at 37 °C in the dark. Slides were then washed in 2X SSC buffer and counterstained with propidium iodide (1 μg/ml), and cover-slipped with Vectashield mounting medium. Fluorescent images of apoptotic cells (green) and cell nuclei (red) were captured using a confocal microscope (Olympus 1×81).

With `CC[C@H](C)[C@H](NC(=O)[C@H](Cc1ccc(O)cc1)NC(=O)[C@@H]1CCCN1C(=O)[C@H](CCCNC(=N)N)NC(=O)[C@H](Cc1c[nH]cn1)NC(=O)[C@H](CO)NC(=O)[C@H](Cc1c[nH]c2ccccc12)NC(=O)[C@@H](NC(=O)[C@H](Cc1c[nH]c2ccccc12)NC(=O)[C@H](CCC(=O)O)NC(=O)[C@@H](CCCCN)NC(=O)[C@@H](CCCCN)NC(=O)[C@@H](CC(C)C)NC(=O)[C@@H](CCC(=O)O)NC(=O)[C@H](NC(=O)[C@@H](C)NC(=O)[C@H](NC(=O)[C@@H](CC(N)=O)NC(=O)[C@@H](CC(C)C)NC(=O)[C@@H](C)NC(=O)[C@@H](Cc1c[nH]c2ccccc12)NC(=O)[C@H](NC(=O)[C@@H](C)NC(=O)CNC(=O)[C@@H](CC(N)=O)NC(=O)[C@@H](CO)NC(=O)[C@@H](CC(N)=O)NC(=O)[C@H](CCCCN)NC(=O)[C@H](Cc1c[nH]c2ccccc12)NC(=O)[C@@H](NC(=O)[C@H](Cc1c[nH]c2ccccc12)NC(=O)[C@@H](N)CCCCN)[C@@H](C)O)[C@H](C)O)C(C)C)[C@H](C)O)[C@@H](C)O)C(=O)N[C@@H](C)C(=O)N[C@@H](Cc1c[nH]cn1)C(=O)O` [Retro-Tf-D-LP4], the “apoptosis of G7 stem cells” value in experiment [1] is reported as “induces apoptosis”.
`CC[C@@H](C)[C@@H](NC(=O)[C@@H](CCCCN)NC(=O)[C@H](NC(=O)[C@@H](CCC(N)=O)NC(=O)[C@@H](CCCNC(=N)N)NC(=O)[C@@H](CC(C)C)NC(=O)CNC(=O)[C@@H](Cc1ccccc1)NC(=O)CNC(=O)[C@@H](Cc1ccc(O)cc1)NC(=O)CNC(=O)[C@@H](CCCCN)NC(=O)[C@H](NC(=O)[C@@H](Cc1ccccc1)NC(=O)[C@H](NC(=O)[C@@H](CC(=O)O)NC(=O)[C@H](N)CCCNC(=N)N)C(C)C)[C@H](C)O)[C@H](C)CC)C(=O)N[C@H](Cc1c[nH]c2ccccc12)C(=O)N[C@H](Cc1ccccc1)C(=O)N[C@H](CCC(N)=O)C(=O)N[C@H](CC(N)=O)C(=O)N[C@H](CCCNC(=N)N)C(=O)N[C@H](CCCNC(=N)N)C(=O)N[C@H](CCSC)C(=O)N[C@H](CCCCN)C(=O)N[C@H](Cc1c[nH]c2ccccc12)C(=O)N[C@H](CCCCN)C(=O)N[C@H](CCCCN)C(=O)O` [D-ΔN-Ter-Antp] (H-[dR][dD][dV][dF][dT][dK]G[dY]G[dF]G[dL][dR][dQ][dI][dK][dI][dW][dF][dQ][dN][dR][dR][dM][dK][dW][dK][dK]-OH; N-terminus and C-terminus assumed): in experiment [2], the “decrease in Ki-67-positive cell numbers” value is recorded as “about 45%”. Moreover, the TUNEL-positive cells result in experiment [3] was “the majority of the cells were TUNEL-positive”.
Consider `CC[C@H](C)[C@H](NC(=O)[C@H](C)NC(=O)[C@@H](N)Cc1c[nH]cn1)C(=O)N[C@@H](Cc1ccc(O)cc1)C(=O)N1CCC[C@H]1C(=O)N[C@@H](CCCNC(=N)N)C(=O)N[C@@H](Cc1c[nH]cn1)C(=O)N[C@@H](CO)C(=O)N[C@@H](Cc1c[nH]c2ccccc12)C(=O)N[C@H](C(=O)N[C@@H](Cc1c[nH]c2ccccc12)C(=O)N[C@@H](CCC(=O)O)C(=O)N[C@H](CCCCN)C(=O)N[C@H](CCCCN)C(=O)N[C@H](CC(C)C)C(=O)N[C@H](CCC(=O)O)C(=O)N[C@@H](C(=O)N[C@H](C)C(=O)N[C@@H](C(=O)N[C@H](CC(N)=O)C(=O)N[C@H](CC(C)C)C(=O)N[C@H](C)C(=O)N[C@H](Cc1c[nH]c2ccccc12)C(=O)N[C@@H](C(=O)N[C@H](C)C(=O)NCC(=O)N[C@H](CC(N)=O)C(=O)N[C@H](CO)C(=O)N[C@H](CC(N)=O)C(=O)N[C@@H](CCCCN)C(=O)N[C@@H](Cc1c[nH]c2ccccc12)C(=O)N[C@H](C(=O)N[C@@H](Cc1c[nH]c2ccccc12)C(=O)N[C@@H](CCCCN)C(=O)O)[C@@H](C)O)[C@H](C)O)C(C)C)[C@H](C)O)[C@@H](C)O` [Tf-D-LP4], for which the “decrease in Ki-67-positive cell numbers” value in experiment [2] is given as “about 45%”. In experiment [3], the TUNEL-positive cells result is “the majority of the cells were TUNEL-positive”.
